According to ChEMBL document CHEMBL3727374, “Compounds, pharmaceutical compositions, and methods of treating or preventing neurodegenerative diseases or disorders” (2012):
The source made the active and inactive calls. No cut-off for these calls is given here.

Legend:
Huntingtin = Huntingtin (Homo sapiens, UniProt P42858); assay: Inhibition of GFP-fused Huntingtin protein Q103/Q25 mutant (unknown origin) […] assessed as protection against huntingtin protein aggregation incubated for 48 hrs by multiplexed assay based HTT f3(agr) method; type: cell-based; details: pc-12
Chain of Huntingtin (P42858 whole entry, looked up, stated change not applied, the tested form may be a part): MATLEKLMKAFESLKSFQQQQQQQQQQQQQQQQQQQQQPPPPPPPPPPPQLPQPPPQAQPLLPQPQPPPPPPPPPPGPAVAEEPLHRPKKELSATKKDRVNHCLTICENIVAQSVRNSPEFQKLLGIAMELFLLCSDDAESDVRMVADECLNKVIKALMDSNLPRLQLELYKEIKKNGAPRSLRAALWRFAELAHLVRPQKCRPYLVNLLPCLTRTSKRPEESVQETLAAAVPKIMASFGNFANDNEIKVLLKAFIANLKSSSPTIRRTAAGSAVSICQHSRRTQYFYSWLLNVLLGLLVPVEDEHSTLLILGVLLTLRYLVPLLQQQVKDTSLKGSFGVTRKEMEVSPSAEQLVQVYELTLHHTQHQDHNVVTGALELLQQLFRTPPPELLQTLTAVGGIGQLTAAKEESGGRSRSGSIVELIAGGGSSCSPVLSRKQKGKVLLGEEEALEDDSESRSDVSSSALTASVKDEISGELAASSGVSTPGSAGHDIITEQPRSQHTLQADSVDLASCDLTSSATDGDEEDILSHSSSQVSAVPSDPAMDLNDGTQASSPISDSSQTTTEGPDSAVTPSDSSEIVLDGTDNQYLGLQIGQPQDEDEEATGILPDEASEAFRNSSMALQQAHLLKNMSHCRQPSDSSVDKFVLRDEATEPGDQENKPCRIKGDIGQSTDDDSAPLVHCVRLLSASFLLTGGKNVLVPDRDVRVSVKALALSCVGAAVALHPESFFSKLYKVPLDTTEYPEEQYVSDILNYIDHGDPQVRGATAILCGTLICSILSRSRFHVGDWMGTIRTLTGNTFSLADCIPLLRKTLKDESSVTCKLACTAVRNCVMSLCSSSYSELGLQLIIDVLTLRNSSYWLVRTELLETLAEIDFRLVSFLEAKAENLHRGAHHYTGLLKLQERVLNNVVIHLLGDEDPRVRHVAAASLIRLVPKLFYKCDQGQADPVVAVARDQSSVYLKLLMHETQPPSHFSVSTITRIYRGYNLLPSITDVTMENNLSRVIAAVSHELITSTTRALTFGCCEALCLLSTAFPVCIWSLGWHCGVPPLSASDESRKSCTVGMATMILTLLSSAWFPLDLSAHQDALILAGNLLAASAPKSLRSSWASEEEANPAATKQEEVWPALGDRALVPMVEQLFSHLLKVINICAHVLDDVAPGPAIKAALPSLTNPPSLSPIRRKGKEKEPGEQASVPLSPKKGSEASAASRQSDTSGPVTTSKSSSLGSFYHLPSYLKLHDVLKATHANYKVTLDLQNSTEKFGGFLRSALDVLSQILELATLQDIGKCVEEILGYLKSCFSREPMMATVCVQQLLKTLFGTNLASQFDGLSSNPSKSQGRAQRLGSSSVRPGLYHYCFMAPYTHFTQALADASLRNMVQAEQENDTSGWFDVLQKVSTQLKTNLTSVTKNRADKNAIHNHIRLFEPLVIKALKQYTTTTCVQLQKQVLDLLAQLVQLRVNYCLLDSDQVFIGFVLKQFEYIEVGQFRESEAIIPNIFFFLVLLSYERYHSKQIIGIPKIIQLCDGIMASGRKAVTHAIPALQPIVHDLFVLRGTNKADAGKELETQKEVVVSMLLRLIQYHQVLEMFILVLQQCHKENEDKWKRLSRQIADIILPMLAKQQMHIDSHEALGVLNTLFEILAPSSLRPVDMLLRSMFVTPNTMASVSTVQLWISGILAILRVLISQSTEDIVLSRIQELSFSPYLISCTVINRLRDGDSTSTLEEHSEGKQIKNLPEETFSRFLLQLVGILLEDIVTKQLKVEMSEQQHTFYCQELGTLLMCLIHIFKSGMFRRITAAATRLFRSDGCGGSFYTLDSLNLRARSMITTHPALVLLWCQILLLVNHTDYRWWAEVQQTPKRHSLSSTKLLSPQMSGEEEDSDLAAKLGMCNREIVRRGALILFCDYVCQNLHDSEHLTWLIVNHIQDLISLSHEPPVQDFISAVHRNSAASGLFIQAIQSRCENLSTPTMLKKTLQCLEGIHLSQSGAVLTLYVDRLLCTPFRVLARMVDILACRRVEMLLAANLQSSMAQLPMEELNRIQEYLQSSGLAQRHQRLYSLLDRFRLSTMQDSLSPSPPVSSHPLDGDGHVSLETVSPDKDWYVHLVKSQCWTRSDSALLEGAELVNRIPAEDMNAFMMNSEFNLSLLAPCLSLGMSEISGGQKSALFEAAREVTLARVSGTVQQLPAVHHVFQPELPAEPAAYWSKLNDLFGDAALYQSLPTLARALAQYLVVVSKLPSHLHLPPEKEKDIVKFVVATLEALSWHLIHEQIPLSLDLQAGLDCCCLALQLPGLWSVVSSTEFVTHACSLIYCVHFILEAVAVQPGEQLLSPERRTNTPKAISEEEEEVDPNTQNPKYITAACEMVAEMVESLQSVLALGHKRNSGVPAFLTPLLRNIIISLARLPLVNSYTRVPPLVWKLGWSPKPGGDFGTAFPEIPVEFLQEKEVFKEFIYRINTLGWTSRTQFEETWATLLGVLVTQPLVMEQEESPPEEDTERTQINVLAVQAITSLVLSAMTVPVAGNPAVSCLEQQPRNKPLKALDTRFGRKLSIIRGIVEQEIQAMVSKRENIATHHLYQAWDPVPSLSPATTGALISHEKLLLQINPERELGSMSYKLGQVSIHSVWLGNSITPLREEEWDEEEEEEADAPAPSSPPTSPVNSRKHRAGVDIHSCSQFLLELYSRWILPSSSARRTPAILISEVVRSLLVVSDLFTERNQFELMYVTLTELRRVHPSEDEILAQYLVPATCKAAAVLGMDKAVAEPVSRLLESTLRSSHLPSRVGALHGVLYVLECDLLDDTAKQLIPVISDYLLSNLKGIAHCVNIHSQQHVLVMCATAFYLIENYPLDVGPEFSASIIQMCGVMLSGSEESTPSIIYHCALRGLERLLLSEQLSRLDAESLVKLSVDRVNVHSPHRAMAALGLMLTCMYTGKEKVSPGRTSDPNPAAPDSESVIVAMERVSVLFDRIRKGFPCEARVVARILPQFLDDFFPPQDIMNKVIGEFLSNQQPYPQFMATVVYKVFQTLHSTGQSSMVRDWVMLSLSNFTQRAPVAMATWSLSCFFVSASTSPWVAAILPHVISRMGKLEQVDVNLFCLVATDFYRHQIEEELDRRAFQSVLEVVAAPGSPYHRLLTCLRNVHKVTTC

[1] = target: T1, Phosphatidylinositol 5-phosphate 4-kinase type-2 gamma (Homo sapiens, UniProt Q8TBX8); assay: Inhibition of PIP5K2C (unknown origin)
T1 sequence (Q8TBX8 whole entry): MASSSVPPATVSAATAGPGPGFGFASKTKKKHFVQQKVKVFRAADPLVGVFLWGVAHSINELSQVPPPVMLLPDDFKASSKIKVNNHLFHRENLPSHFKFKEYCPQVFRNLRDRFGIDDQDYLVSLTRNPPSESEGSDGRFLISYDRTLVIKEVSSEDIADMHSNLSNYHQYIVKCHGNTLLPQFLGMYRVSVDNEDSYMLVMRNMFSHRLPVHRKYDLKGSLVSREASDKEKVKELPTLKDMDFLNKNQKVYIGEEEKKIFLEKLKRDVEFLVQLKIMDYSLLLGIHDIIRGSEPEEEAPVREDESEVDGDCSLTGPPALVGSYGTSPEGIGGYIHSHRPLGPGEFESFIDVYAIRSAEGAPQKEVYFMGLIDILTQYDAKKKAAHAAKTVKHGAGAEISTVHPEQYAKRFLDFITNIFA

STHdhQ111 [2] = assay: Cytoprotective activity in mouse STHdhQ111 cells assessed as protection against H2O2-induced cell death at 10 nM to 1 uM by MTT assay; type: functional, cell-based
STHdhQ111 [3] = assay: Cytoprotective activity in mouse STHdhQ111 cells assessed as protection against beta-amyloid-induced cell death at 10 nM to 1 uM by MTT assay; type: functional, cell-based
[4] = Stability in mouse liver microsomes assessed as parent compound remaining at 1 uM incubated for 60 mins in presence of NADPH; type: ADME; details: read-out: Stability
[5] = Stability in mouse liver microsomes assessed as parent compound remaining at 1 uM incubated for 60 mins in absence of NADPH; type: ADME; details: read-out: Stability
[6] = Stability in mouse liver microsomes assessed as parent compound remaining at 5 uM incubated for 60 mins in absence of NADPH; type: ADME; details: read-out: Stability
[7] = Stability in mouse liver microsomes assessed as parent compound remaining at 5 uM incubated for 60 mins in presence of NADPH; type: ADME; details: read-out: Stability
STHdhQ111 [8] = assay: Cytoprotective activity in mouse STHdhQ111 cells against serum free medium-induced apoptotic cell death assessed as inhibition of caspase-9 activation incubated for 16 hrs; type: functional, cell-based
STHdhQ111 [9] = assay: Cytoprotective activity in mouse STHdhQ111 cells against serum free medium-induced apoptotic cell death assessed as inhibition of caspase-3 activation incubated for 16 hrs; type: functional, cell-based

| Structure (SMILES) | AC50 (Huntingtin) [µM] | Kd [1] [µM] | further results |
| --- | --- | --- | --- |
| Cn1nnnc1Sc1ncnc2scc(-c3ccc(S(C)(=O)=O)cc3)c12 | 15.8 | 7.94 | – |
| Cn1nnnc1Sc1ncnc2scc(-c3ccc(C(F)(F)F)cc3)c12 | 35.5 | > 100 | – |
| CS(=O)(=O)c1cccc(-c2csc3ncnc(NCCN)c23)c1 | – | > 100 | – |
| Cn1nnnc1Sc1ncnc2scc(-c3ccc4ccccc4c3)c12 | 15.8 | 63.1 | – |
| CC(=O)c1cccc(-c2csc3ncnc(Sc4nnnn4C)c23)c1 | 28.2 | – | Activity (STHdhQ111 [2]): Active; Activity (STHdhQ111 [3]): Active |
| Cn1nnnc1Sc1ncnc2scc(-c3ccsc3)c12 | 35.5 | 7.94 | – |
| Cn1nnnc1Sc1ncnc2scc(-c3cccc(C#N)c3)c12 | 35.5 | 2.51 | – |
| CC(=O)c1ccc(-c2csc3ncnc(Sc4nnnn4C)c23)cc1 | 39.8 | – | remaining at 1 h, 1 µM [4]: 2%; remaining at 1 h, 1 µM [5]: 91% |
| Cn1nnnc1Sc1ncnc2scc(-c3ccc4c(=O)ccoc4c3)c12 | 35.5 | 1.99 | – |
| Cn1nnnc1Sc1ncnc2scc(-c3cccc(C(F)(F)F)c3)c12 | 35.5 | 6.3 | – |
| Cn1nnnc1Sc1ncnc2scc(-c3cccs3)c12 | 35.5 | 2.82 | remaining at 1 h, 1 µM [4]: 0%; remaining at 1 h, 1 µM [5]: 88% |
| Cn1nnnc1Sc1ncnc2scc(-c3cccc(S(C)(=O)=O)c3)c12 | 39.8 | 0.63 | remaining at 1 h, 5 µM [6]: 89%; remaining at 1 h, 5 µM [7]: 70% |
| Cn1nnnc1Sc1ncnc2scc(Br)c12 | 5.01 | 1.12 | – |
| Cn1nnnc1Sc1ncnc2scc(-c3ccc(N)cc3)c12 | – | 5.62 | – |
| Cn1nnnc1Sc1ncnc2scc(-c3ccc(C#N)cc3)c12 | 35.5 | 12.6 | – |
| Cn1nnnc1Sc1ncnc2scc(I)c12 | 35.5 | 0.89 | – |
| Cc1ccc(-c2csc3ncnc(Sc4nnnn4C)c23)cc1 | 39.8 | 14.1 | – |
| Cn1nnnc1Sc1ncnc2scc(-c3cccc([N+](=O)[O-])c3)c12 | 35.5 | 1.58 | – |
| COc1cccc(-c2csc3ncnc(Sc4nnnn4C)c23)c1 | 28.2 | 3.98 | – |
| Cn1nnnc1Sc1ncnc2scc(-c3ccc(-c4ccccc4)cc3)c12 | 28.2 | > 100 | – |
| Cn1nnnc1Sc1ncnc2scc(-c3ccc(C(=O)OC(C)(C)C)cc3)c12 | 35.5 | > 100 | – |
| COc1ccc(-c2csc3ncnc(Sc4nnnn4C)c23)cc1 | 39.8 | 11.2 | – |
| Cn1nnnc1Sc1ncnc2scc(-c3ccc4c(c3)OCO4)c12 | 20 | 12.6 | – |
| Cn1nnnc1Sc1ncnc2scc(-c3ccc(F)cc3)c12 | 20 | 12.6 | Activity (STHdhQ111 [8]): Active; Activity (STHdhQ111 [9]): Active |
| Cn1nnnc1Sc1ncnc2scc(-c3ccc[nH]3)c12 | 31.6 | 5.62 | – |
| Cn1nnnc1Sc1ncnc2scc(-c3ccc([N+](=O)[O-])cc3)c12 | 35.5 | 6.31 | – |
| Cn1nnnc1Sc1ncnc2scc(-c3ccc(Br)cc3)c12 | 35.5 | 39.8 | – |
| Cn1nnnc1Sc1ncnc2scc(-c3cccc4c3sc3ccccc34)c12 | 35.5 | > 100 | – |

Now from value to compound, other results behind:

| AC50 (Huntingtin) [µM] | Kd [1] [µM] | Structure (SMILES) | further results |
| --- | --- | --- | --- |
| – | 44.7 | CC(=O)c1ccccc1-c1csc2ncnc(Sc3nnnn3C)c12 | – |
| 22.4 | 11.2 | Cn1nnnc1Sc1ncnc2scc(-c3cccc(Cl)c3)c12 | – |
| 28.2 | 63.1 | Cn1nnnc1Sc1ncnc2scc(-c3ccccc3C(F)(F)F)c12 | – |
| 39.8 | 28.2 | Cn1nnnc1Sc1ncnc2scc(-c3ccc(Cl)cc3)c12 | – |
| 14.1 | 6.31 | Cn1nnnc1Sc1ncnc2scc(-c3cccc(F)c3)c12 | – |
| – | 14.1 | Cn1nnnc1Sc1ncnc2scc(-c3ccccc3Cl)c12 | – |
| – | 44.7 | Cc1ccccc1-c1csc2ncnc(Sc3nnnn3C)c12 | – |
| 7.94 | 2.82 | Cn1nnnc1Sc1ncnc2scc(-c3cc4ccccc4o3)c12 | – |
| 35.5 | 11.2 | Cc1cccc(-c2csc3ncnc(Sc4nnnn4C)c23)c1 | – |
| 31.6 | 79.4 | COc1ccccc1-c1csc2ncnc(Sc3nnnn3C)c12 | – |
| 15.8 | 11.2 | Cn1nnnc1Sc1ncnc2scc(-c3ccccc3[N+](=O)[O-])c12 | – |
| 31.6 | 3.98 | Cn1nnnc1Sc1ncnc2scc(-c3cccc(N)c3)c12 | – |
| 39.8 | 3.55 | Cn1nnnc1Sc1ncnc2scc(-c3ccccc3)c12 | – |
| 35.5 | > 100 | Cn1nnnc1Sc1ncnc2scc(-c3cccc4ccccc34)c12 | – |
| 35.5 | 6.31 | Cn1nnnc1Sc1ncnc2scc(-c3ccccc3F)c12 | – |
| – | 6.3 | Cn1nnnc1Sc1ncnc2scc(-c3ccccc3C#N)c12 | – |
| 35.5 | 2.82 | Cn1nnnc1Sc1ncnc2scc(-c3cccc(Br)c3)c12 | – |
